Laboratory results published in patent US20250127787A1, “METHODS FOR TREATING PERIPHERAL NEUROPATHY” (University of Pittsburgh - Of the Commonwealth System of …, priority 2021, published 2025).
Entries after “also recorded” stand apart in the source; their conditions may differ.

Key:
protein carbonylation = experiment: Protein carbonylation in PAC-CIPN rat epidermis; type: in vivo; details: 8-AG 5 mg/kg/day in drinking water
Description: Animals: This study employed female Harlan Sprague Dawley (HSD) rats (3-4 mo; Envigo, Indianapolis, IN) and were divided into the following groups: 1) Control, 2) Cyclophosphamide (CYP, 75 mg/kg i.p. in saline vehicle; administered on days 0, 3 and 6 until sacrifice on day 8); 4) Paclitaxel (2 mg/kg i.p., 2 mg/kg i.p. in saline from a stock solution of 50/50 CremophorEL/ethanol); administered on days 0, 2, 4 and 6 until sacrifice on day 8; 4) 8-aminoguanine (8-AG; 5 mg/kg/day in drinking water; beginning 2 weeks prior to either CYP or PAC and continuing until sacrifice (day 8)). The dose of 8-AG was based on the experiments described above. […] All tissues (spinal cord and hindpaw epidermis) were removed from isoflurane anesthetized rats and the tissue was used for various experimental approaches as described below. At the end of tissue removal, animals were sacrificed by thoracotomy. […]

inosine and guanosine = experiment: Purine levels (inosine, guanosine) in CYP-CIPN rat epidermis (footpad); type: in vivo; details: 8-AG 5 mg/kg/day in drinking water
Description: Animals. This study employed female Harlan Sprague Dawley (HSD) rats (3-4 mo; Envigo, Indianapolis, IN) and were divided into the following groups: 1) Control, 2) Cyclophosphamide (CYP, 75 mg/kg i.p. in saline vehicle; administered on days 0, 3 and 6); 3) 8-aminoguanine (8-AG; 5 mg/kg/day in drinking water; beginning 2 weeks prior to CYP and continuing until sacrifice (day 8)). The dose of 8-AG is based on our preliminary and published experiments. […] The investigation conforms to the Guide for the Care and Use of Laboratory Animals published by the US National Institutes of Health (NIH Publication No. 85-23, revised 1996). In addition, all tissues (dorsal root ganglion, spinal cord, peripheral nerves and hindpaw epidermis) were removed from isoflurane anesthetized rats and the tissue was used for various experimental approaches as described below. At the end of tissue removal, animals were sacrificed by thoracotomy.

PNPase = PNPase (Rattus norvegicus, UniProt P85973); details: single bolus 5 mg/kg
Chain of PNPase (P85973 whole entry): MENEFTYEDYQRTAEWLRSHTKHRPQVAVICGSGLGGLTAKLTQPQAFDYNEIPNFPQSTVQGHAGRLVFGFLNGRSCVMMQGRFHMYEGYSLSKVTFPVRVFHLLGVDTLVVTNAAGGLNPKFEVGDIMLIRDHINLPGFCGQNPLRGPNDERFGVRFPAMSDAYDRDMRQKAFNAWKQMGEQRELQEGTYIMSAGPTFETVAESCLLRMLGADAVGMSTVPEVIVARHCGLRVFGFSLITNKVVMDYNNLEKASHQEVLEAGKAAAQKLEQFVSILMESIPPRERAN
Description: Rats were anesthetized with urethane (Sigma-Aldrich, St. Louis, MO) at 1.2 g/kg. A continuous infusion of 0.9% sterile saline at 25 ul/min was established via a catheter inserted into the jugular vein. A second catheter to the carotid artery was established in order to collect blood samples (200 μl) which were drawn into a 1 ml syringe prefilled with 50 U heparin. Blood samples were centrifuged at 1300 g for 10 minutes and supernatant (plasma) was then quickly frozen on dry ice and stored at −80° C. until assay. Urine samples were collected by a urethral catheter, centrifuged at 416 g for 10 minutes to remove sediment, and stored as above. Baseline blood samples and urine samples were collected followed by a single bolus of 8-aminoguanine (8-AG, 5 mg/kg) administered through the jugular catheter. Blood samples were collected after 15, 30, 60, 120 and 240 minutes. Urine samples were collected at 1, 2, 4 and 6 hours.
Purines in urine were measured by mass spectrometry using multiple reaction monitoring. Blood samples were diluted 1 to 30 with water, and heavy isotope internal standards were added to each sample. Purines were separated by reversed-phase ultra-performance liquid chromatography (Waters UPLC BEH C18 column, 1.7 μm beads; 2.1×150 mm; Milford, MA) and quantified by multiple reaction monitoring using a triple quadrupole mass spectrometer (TSQ Quantum-Ultra; ThermoFisher Scientific, San Jose, CA) with a heated electrospray ionization source. The mobile phase was a linear gradient flow rate (300 uL/min) of 1% acetic acid in water (pH, 3; mobile phase A) and 100% methanol (mobile phase B), and was delivered with a Waters Acquity ultra-performance liquid chromatographic system. The gradient (A/B) settings were: from 0 to 2 minutes, 99.6%/0.4%; from 2 to 3 minutes, to 98.0%/2.0%; from 3 to 4 minutes, to 85.0%/15.0%; from 4 to 6.5 minutes, to 99.6%/0.4%. The instrument parameters were: sample tray temperature, 10° C.; column temperature, 50° C.; ion spray voltage, 4.0 kilovolts; ion transfer tube temperature, 350° C.; source vaporization temperature, 320° C.; Q2 CID gas, argon at 1.5 mTorr; sheath gas, nitrogen at 60 psi; auxillary gas, nitrogen at 35 psi; Q1/Q3 width, 0.7/0.7 units full-width half-maximum; scan width, 0.6 units; scan time, 0.01 seconds. The following transitions (multiple reaction monitoring) were obtained: guanosine (284→152; RT=2.94 min); ^13C10, ^15N5-guanosine (299→162, RT=2.94 min); guanine (152→135; RT=1.48 min); ^13C2, ^15N-guanine (155→138, RT=1.48 min); hypoxanthine (137→119 m/z, RT=1.86 min); ^13C5-hypoxanthine (142→124 m/z, RT=1.86 min); aminoguanine (167→150 m/z, RT=1.50 min); ^13C2^15N-aminoguanine (170→153 m/z, RT=1.50 min).

- duration of sustained reduction in the ratio of urine guanosine to urine guanine (PNPase; rat urine): > 6 h
- duration of sustained reduction in urine levels of hypoxanthine (PNPase; rat urine): > 6 h
- hypoxanthine levels in the urine (PNPase; rat urine): decrease
- duration of sustained inhibition of PNPase following a bolus dose (PNPase; rat): > 6 h
Compound: Nc1nc2[nH]c(N)nc2c(=O)[nH]1 [8-AG, 8-Aminoguanine]
- effect on PAC-induced protein carbonylation (protein carbonylation): restored values to that of a control state; also recorded: significantly reduced
- effect on CYP-induced decrease in guanosine levels (inosine and guanosine): normalizes; also recorded: completely restored
- effect on CYP-induced decrease in inosine levels (inosine and guanosine): normalizes; also recorded: completely restored
